The record followed here is PubChem BioAssay AID330 (DTP/NCI, 2004).

In this assay the test system is P388 leukemia ip, CD2F1 mice, survival T/C. The assay can be described thus: NCI In Vivo Anticancer Drug Screen. Data for tumor model P388 Leukemia (intraperitoneal) in CD2F1 (CDF1) mice. To be noted: endpoint: median survival time, higher = longer survival. In short, it runs like this:
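Mice carrying the transplanted tumor received test compound or vehicle. Survival was recorded in each group, and the value is the treated-group measurement divided by that of the vehicle-treated control group.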

The mark [1] stands for this setting: dose: 50.0 mg/kg/injection, schedule: Q01DX009 (ip), vehicle: Klucel (hydroxypropylcellulose) (HPC).
Setting [2] is: dose: 100.0 mg/kg/injection, schedule: Q04DX003 (ip), vehicle: saline with Tween-80.
Setting [3] is: dose: 50.0 mg/kg/injection, schedule: Q01DX005 (ip), vehicle: saline with Tween-80.
The mark [4] stands for this setting: dose: 100.0 mg/kg/injection, schedule: Q01DX005 (ip), vehicle: saline with Tween-80.
The mark [5] stands for this setting: dose: 200.0 mg/kg/injection, schedule: Q01DX005 (ip), vehicle: saline with Tween-80.
The mark [6] stands for this setting: dose: 100.0 mg/kg/injection, schedule: Q04DX003 (ip), vehicle: Klucel (hydroxypropylcellulose) (HPC).
The mark [7] stands for this setting: dose: 200.0 mg/kg/injection, schedule: Q04DX003 (ip), vehicle: Klucel (hydroxypropylcellulose) (HPC).
The mark [8] stands for this setting: dose: 400.0 mg/kg/injection, schedule: Q04DX003 (ip), vehicle: Klucel (hydroxypropylcellulose) (HPC).
The mark [9] stands for this setting: dose: 50.0 mg/kg/injection, schedule: Q01DX005 (ip), vehicle: Klucel (hydroxypropylcellulose) (HPC).
[10] abbreviates: dose: 100.0 mg/kg/injection, schedule: Q01DX005 (ip), vehicle: Klucel (hydroxypropylcellulose) (HPC).
[11] abbreviates: dose: 200.0 mg/kg/injection, schedule: Q01DX005 (ip), vehicle: Klucel (hydroxypropylcellulose) (HPC).
Setting [12] is: dose: 100.0 mg/kg/injection, schedule: Q01DX009 (ip), vehicle: Klucel (hydroxypropylcellulose) (HPC).
Setting [13] is: dose: 200.0 mg/kg/injection, schedule: Q01DX009 (ip), vehicle: Klucel (hydroxypropylcellulose) (HPC).
Where [14] appears, read: dose: 50.0 mg/kg/injection, schedule: Q01DX005 (ip), vehicle: saline.
Where [15] appears, read: dose: 100.0 mg/kg/injection, schedule: Q01DX005 (ip), vehicle: saline.
The mark [16] stands for this setting: dose: 200.0 mg/kg/injection, schedule: Q01DX005 (ip), vehicle: saline.

Values joined by “and” are separate entries in the source; they are usually repeats but may differ in a detail not shown here. Equal values may be shown once. Inconclusive results and toxic doses are left out.

In the case of `O=C(OC1(c2nccc3ccccc23)CCCCC1)c1ccccc1`, the T/C is 97 % of control (dose: 25.0 mg/kg/injection, schedule: Q01DX009 (ip), vehicle: Klucel (hydroxypropylcellulose) (HPC)); 93 % of control under setting [1]; 103 % of control (dose: 100.0 mg/kg/injection, schedule: Q01DX001 (ip), vehicle: Klucel (hydroxypropylcellulose) (HPC)); 94 % of control (dose: 200.0 mg/kg/injection, schedule: Q01DX001 (ip), vehicle: Klucel (hydroxypropylcellulose) (HPC)); 92 % of control (dose: 400.0 mg/kg/injection, schedule: Q01DX001 (ip), vehicle: Klucel (hydroxypropylcellulose) (HPC)).
As for `COc1ccc(Oc2ccc(C(=O)C(CN(C)C)CN(C)C)cc2)cc1`, the T/C is 121 % of control (dose: 3.75 mg/kg/injection, schedule: Q01DX005 (ip), vehicle: saline); 124 % of control (dose: 7.5 mg/kg/injection, schedule: Q01DX005 (ip), vehicle: saline); 88 % of control (dose: 30.0 mg/kg/injection, schedule: Q01DX005 (ip), vehicle: saline).
In the case of `O=C(Cc1ccncc1)c1cccnc1`, the T/C is, setting by setting: (dose: 12.5 mg/kg/injection, schedule: Q01DX001 (ip), vehicle: saline) 101 % of control; (dose: 25.0 mg/kg/injection, schedule: Q01DX001 (ip), vehicle: saline) 102 % of control; (dose: 50.0 mg/kg/injection, schedule: Q01DX001 (ip), vehicle: saline) 107 % of control; (dose: 100.0 mg/kg/injection, schedule: Q04DX002 (ip), vehicle: saline) 98 % of control; (dose: 200.0 mg/kg/injection, schedule: Q04DX002 (ip), vehicle: saline) 99 % of control; (dose: 400.0 mg/kg/injection, schedule: Q04DX002 (ip), vehicle: saline) 105 % of control.
With `CCCCN(CCCC)CCC(=O)OCC`, the T/C reads like this: under setting [2], 104 % of control; (dose: 200.0 mg/kg/injection, schedule: Q04DX003 (ip), vehicle: saline with Tween-80) 100 % of control; (dose: 400.0 mg/kg/injection, schedule: Q04DX003 (ip), vehicle: saline with Tween-80) 109 % of control.
In the case of `COc1cc(NS(C)(=O)=O)ccc1Nc1c2ccc([N+](=O)[O-])cc2nc2c(C)cccc12`, the T/C (dose: 3.0 mg/kg/injection, schedule: Q01DX009 (ip), vehicle: saline with Tween-80) is 272 % of control; the T/C (dose: 3.0 mg/kg/injection, schedule: Q04DX003 (ip), vehicle: saline with Tween-80) was 181 % of control; the T/C (dose: 6.0 mg/kg/injection, schedule: Q01DX009 (ip), vehicle: saline with Tween-80) is 100 % of control; the T/C (dose: 6.0 mg/kg/injection, schedule: Q04DX003 (ip), vehicle: saline with Tween-80) was 209 % of control; the T/C (dose: 7.9 mg/kg/injection, schedule: Q04DX003 (ip), vehicle: saline with Tween-80) is 218 % of control; the T/C (dose: 12.0 mg/kg/injection, schedule: Q04DX003 (ip), vehicle: saline with Tween-80) was 181 % of control and 231 % of control.
In the case of `O=C(NC1C=Nc2ccc(Cl)cc2NC1=O)c1ccccc1Cl` (stereo unspecified), the T/C is 92 % of control (dose: 60.0 mg/kg/injection, schedule: Q01DX005 (ip), vehicle: saline with Tween-80); 95 % of control (dose: 120.0 mg/kg/injection, schedule: Q01DX005 (ip), vehicle: saline with Tween-80); 100 % of control (dose: 240.0 mg/kg/injection, schedule: Q01DX005 (ip), vehicle: saline with Tween-80).
`O=C1C(=O)N(c2ccccc2)[C@]2(c3ccccc3)C1=C(c1ccccc1)N(c1ccccc1)C(=O)N2c1ccccc1`: the T/C under setting [3] was 97 % of control, the T/C under setting [4] was 88 % of control and the T/C under setting [5] was 88 % of control.
Consider `CCC1CN2CCc3cc(OC)c(OC)cc3C2CC1CC1c2cc(OC)c(OC)cc2CCN1C(=O)C(Cc1c[nH]c2ccccc12)NC(=O)OC(C)(C)C` (stereo unspecified), for which the T/C was 105 % of control (dose: 25.0 mg/kg/injection, schedule: Q01DX009 (ip), vehicle: saline with Tween-80); 115 % of control (dose: 50.0 mg/kg/injection, schedule: Q01DX009 (ip), vehicle: saline with Tween-80); 104 % of control (dose: 66.0 mg/kg/injection, schedule: Q01DX009 (ip), vehicle: saline with Tween-80); 104 % of control under setting [2].
On to `CNC(=O)C1OC(n2cnc3c(N)ncnc32)C(O)C1O` (stereo unspecified), for which the T/C is, setting by setting: (dose: 0.78 mg/kg/injection, schedule: Q01DX005 (ip), vehicle: saline with Tween-80) 109 % of control and 110 % of control and 120 % of control; (dose: 1.56 mg/kg/injection, schedule: Q01DX005 (ip), vehicle: saline with Tween-80) 113 % of control and 114 % of control and 116 % of control; (dose: 3.13 mg/kg/injection, schedule: Q01DX005 (ip), vehicle: saline with Tween-80) 117 % of control.
Turning to `CN(C)c1ccccc1[Si](C)(C)N(C)C`, the T/C is, setting by setting: (dose: 60.0 mg/kg/injection, schedule: Q01DX005 (ip), vehicle: saline) 103 % of control; (dose: 120.0 mg/kg/injection, schedule: Q01DX005 (ip), vehicle: saline) 103 % of control; (dose: 240.0 mg/kg/injection, schedule: Q01DX005 (ip), vehicle: saline) 106 % of control.
On to `C=CCSc1nc2ccc(N=Cc3ccccc3O)cc2s1`, for which the T/C runs as follows: under setting [6], 88 % of control; under setting [7], 91 % of control; under setting [8], 92 % of control.
In the case of `CCCCCC1(C2CCCCO2)NC(=O)NC1=O` (stereo unspecified), the T/C was 97 % of control under setting [3], 99 % of control under setting [4] and 91 % of control under setting [5].
On to `Cc1c(C)c(N(CCCl)CCCl)c(C)c2c1OC(C)(CCCC(C)CCCC(C)CCCC(C)C)CC2` (stereo unspecified), for which the T/C by setting is: (dose: 100.0 mg/kg/injection, schedule: Q04DX002 (ip), vehicle: saline with Tween-80) 113 % of control; (dose: 200.0 mg/kg/injection, schedule: Q04DX002 (ip), vehicle: saline with Tween-80) 113 % of control; (dose: 400.0 mg/kg/injection, schedule: Q04DX002 (ip), vehicle: saline with Tween-80) 115 % of control.
For `CCOC(=O)CCC1=C(C)c2cc3[nH]c(cc4[nH]c(cc5nc(cc1n2)C(CCC(=O)OCC)=C5C)c(C1CC1C(=O)OCC)c4C)c(C1CC1C(=O)OCC)c3C` (stereo unspecified), the T/C is 102 % of control under setting [9], 100 % of control under setting [10] and 101 % of control under setting [11].
As to `CN(C)Cc1c(O)c2ccc(N(C)C)cc2[nH]c1=O`, the T/C is, setting by setting: (dose: 60.0 mg/kg/injection, schedule: Q01DX005 (ip), vehicle: Klucel (hydroxypropylcellulose) (HPC)) 92 % of control; (dose: 120.0 mg/kg/injection, schedule: Q01DX005 (ip), vehicle: Klucel (hydroxypropylcellulose) (HPC)) 90 % of control; (dose: 240.0 mg/kg/injection, schedule: Q01DX005 (ip), vehicle: Klucel (hydroxypropylcellulose) (HPC)) 96 % of control.
Consider `c1ccc(-c2cc(CNc3nc4ccccc4s3)on2)cc1`, for which the T/C by setting is: under setting [1], 99 % of control; under setting [12], 99 % of control; under setting [13], 99 % of control.
On to `CC(=O)NC1C(Nc2ccc(S(=O)(=O)Nc3nccc(C)n3)cc2)OC(CO)C(O)C1O` (stereo unspecified), for which the T/C runs as follows: under setting [14], 100 % of control; under setting [15], 105 % of control; under setting [16], 92 % of control.
Regarding `CC(=O)OCCC/C(=C/c1cc2ccccc2c2ccccc12)[N+](=O)[O-]`, the T/C is 104 % of control under setting [6], 109 % of control under setting [7] and 109 % of control under setting [8].
On to `CCCCN(CCCC)C(=S)C(O)(c1ccccc1)c1ccccc1`, for which the T/C was 95 % of control under setting [1], 91 % of control under setting [12] and 90 % of control under setting [13].
Take `O=C(O)COc1ccccc1P(=O)(c1ccccc1)c1ccccc1`: the T/C reads like this: under setting [9], 101 % of control; under setting [10], 102 % of control; under setting [11], 103 % of control.
As for `CC1CCCC(C2CCCCCCC2O)N1` (stereo unspecified), the T/C is, setting by setting: under setting [14], 100 % of control; under setting [15], 92 % of control; under setting [16], 97 % of control.
With `COCCO[Si](OCCOC)(OCCOC)OCCOC`, the T/C under setting [1] was 99 % of control and the T/C under setting [12] is 87 % of control.
Take `CC(C)CNCC(=O)Nc1ccc(Cc2ccc(NC(=O)CNCC(C)C)cc2)cc1`: the T/C runs as follows: under setting [3], 102 % of control; under setting [4], 97 % of control.
